Article PMC3742671, “Structure, Antimicrobial Activities and Mode of Interaction with Membranes of Bovel Phylloseptins from the Painted-Belly Leaf Frog, Phyllomedusa sauvagii” (PLoS ONE, 2013)
Ends that are not written are not given here.

Experiments:
A. baumannii ATCC 19606 = conditions: LB medium (pH 7), absorbance at 630 nm; average of three independent experiments in triplicates
Experimental: (§1) The effect of phylloseptins-S was evaluated against several bacterial strains and yeasts (Table 2). Bacteria were cultured in Luria-Bertani broth (LB), whereas yeasts were cultured in Yeast Peptone Dextrose medium (YPD), and minimal inhibitory concentrations (MICs) were determined by measuring the absorbance at 630 nm in 96-well microtitration plates, as described previously. Leishmanicidal activity of phylloseptins-S was also examined against promastigotes of different Leishmania species: Leishmania infantum (strain MHOM/MA/67/ITMAP-263), L. major (MHOM/SU/73/5-ASKH) and L. braziliensis (MHOM/BR/75/M2904). Culture of promastigotes and determination of the growth inhibition were performed as previously described, [22], [23].
(§2) The antimicrobial activity of synthetic PLS-S1 to -S5 was assayed in LB medium (pH 7) against several Gram-negative and Gram-positive bacteria, and multi-drug resistant S. aureus strains. […] The antiparasitic activity of PLSs was also determined against three Leishmania species (L. infantum, L. major, and L. braziliensis). […] Because PLS-S3 contains histidines as basic residues and that approximately only 11% of these residues are positively charged at pH 7, we have evaluated the antibacterial activity at pH 5 at which His residues are predominantly positively charged (∼91%).

E. coli ATCC 25922 = conditions: for MIC: ATCC 25922, pH 7
Experimental: as §1, §2

E. coli ML-35p = conditions: LB medium (pH 7), absorbance at 630 nm; average of three independent experiments in triplicates
Experimental: as §1, §2

E. faecalis ATCC 29212 = conditions: LB medium (pH 7), absorbance at 630 nm; average of three independent experiments in triplicates
Experimental: as §1, §2

K. pneumoniae ATCC 13883 = conditions: LB medium (pH 7), absorbance at 630 nm; average of three independent experiments in triplicates
Experimental: as §1, §2

P. aeruginosa ATCC 27853 = conditions: LB medium (pH 7), absorbance at 630 nm; average of three independent experiments in triplicates
Experimental: as §1, §2

S. aureus ATCC 25923 = conditions: LB medium (pH 7), absorbance at 630 nm, 96-well plates; average of three independent experiments in triplicates
Experimental: as §1, §2

S. aureus ATCC 43300 = conditions: strain resistant to methicillin and oxacillin; LB medium (pH 7), absorbance at 630 nm; average of three independent experiments in triplicates
Experimental: as §1, §2

S. aureus ATCC BAA-44 = conditions: multidrug resistant strain; LB medium (pH 7), absorbance at 630 nm; average of three independent experiments in triplicates
Experimental: as §1, §2

S. aureus ST1065 [1] = conditions: LB medium (pH 7), absorbance at 630 nm; average of three independent experiments in triplicates
Experimental: as §1, §2

S. pyogenes ATCC 19615 = conditions: LB medium (pH 7), absorbance at 630 nm; average of three independent experiments in triplicates
Experimental: as §1, §2

[2] = system: Leishmania infantum (strain MHOM/MA/67/ITMAP-263) promastigotes; type: cell-based
Experimental: as §1
Figure 3 Activity of phylloseptins-S against Leishmania infantum promastigotes. IC50 values were determined from a dose-response inhibition fit using GraphPad Prism 5.0 (Table 2). Results represent the mean ± S.E.M. and are representative of three experiments carried out in triplicates.

human erythrocytes = type: cell-based
Experimental: (§3) Hemolytic assays were performed using fresh human erythrocytes from a healthy donor according to a previously described protocol. Cytotoxic activity of PLS-S was also determined on the human leukemia monocyte cell line THP-1. 80 µL of 6.25×10^5 cells/mL were incubated for 72 h with 20 µL of peptide (3 to 50 µM, final concentrations) at 37°C and 5% CO2 in RPMI medium supplemented with 10% FCS. The cell viability was determined by adding 10 µL of methylthiazolyldiphenyl-tetrazolium bromide (MTT, 10 mg/mL) to the plate. After 4h incubation at 37°C, formazan was solubilized with 100 µL of a solution containing 50% isopropanol and 10% SDS, and the absorbance was measured at 570 nm. The lytic concentration 50 (LC50), which correspond to the peptide concentration producing 50% lysis, was determined with the GraphPad Prism® 5.0 software. Results were expressed as the mean of three independent experiments performed in triplicates.

[3] = system: human leukemia monocyte cell line THP-1; assay: Cytotoxic activity, MTT; type: cell-based; conditions: for IC50: 72 h, 37°C, RPMI + 10% FCS, peptide 3 to 50 µM, MTT read at 570 nm, average of three independent experiments in triplicates; for LC50: value stated jointly for the three peptides
Experimental: as §3

S. aureus ST1065 [4] = assay: Time-kill assay; type: cell-based; conditions: for time to complete killing: peptide at two-fold above the MIC (MIC 6.25 µM), ∼2–3 10^6 cfu/mL in PBS, two experiments in triplicates
Experimental: The time-kill kinetics of phylloseptins-S against the Gram-negative bacteria E. coli ML-35p and the Gram-positive strain S. aureus ST1065 were evaluated as previously described with a dose of peptide corresponding to the MIC and two-fold above the MIC. Two experiments were realized in triplicates.
Figure 4 Time-kill curves of PLS-S1 (S1), -S2 (S2), and -S4 (S4). […] Controls correspond to bacteria incubated in PBS without peptide. The data are the means ± S.E.M. of two experiments carried out in triplicates.

[5] = Circular dichroism spectroscopy in SDS micelles; type: physicochemical; conditions: CD, peptide 30 µM in 80 mM SDS
Experimental: (§4) The far-ultraviolet circular dichroism (CD) spectra were recorded as described. Phylloseptins-S (30 µM) were solubilized either in 80 mM sodium dodecyl sulfate (SDS) or in phosphate-buffered saline (PBS: 10 mM phosphate, pH 7.3) containing 1 mg/mL of large unilamellar vesicles (LUVs) of 1,2-dimyristoyl-sn-glycero-3-phosphocholine (DMPC) and 1,2-dimyristoyl-sn-glycero-3-phosphoglycerol (DMPG) (3∶1 mol/mol). DMPC and DMPG were purchased from Avanti Polar Lipids, Inc. Each spectrum was the average of four scans. CD measurements are reported as Δ/n, where Δ is the dichroic increment and n is the number of residues in the peptide.
(§5) Figure 6 Circular dichroism spectra of synthetic phylloseptins-S (30 µM). (A) DMPC/DMPG (3∶1) large unilamellar vesicles in PBS (1 mg/mL). (B) 80 mM SDS. CD measurements are reported as the dichroic increment (Δε) per residue.

[6] = Circular dichroism spectroscopy with DMPC/DMPG (3:1) large unilamellar vesicles; type: physicochemical; conditions: CD, peptide 30 µM, DMPC/DMPG (3:1) LUVs 1 mg/mL in PBS pH 7.3
Experimental: as §4, §5

Substance	MIC (A. baumannii ATCC 19606) [µM]	MIC at pH 5 (E. coli ATCC 25922; ATCC 25922, pH 5) [µM]	MIC (E. coli ATCC 25922) [µM]	MIC (E. coli ML-35p) [µM]	MIC (E. faecalis ATCC 29212) [µM]	MIC (K. pneumoniae ATCC 13883) [µM]	MIC (P. aeruginosa ATCC 27853) [µM]	MIC (S. aureus ATCC 25923) [µM]	MIC (S. aureus ATCC 43300) [µM]	MIC (S. aureus ATCC BAA-44) [µM]	MIC (S. aureus ST1065 [1]) [µM]	MIC (S. pyogenes ATCC 19615) [µM]	IC50 [2] [µM]	LC50 (peptide concentration producing 50% lysis) (human erythrocytes) [µM]	IC50 [3] [µM]	LC50 [3] [µM]	time to complete killing (S. aureus ST1065 [4]) [min]	helix content [5] [%]	helix content [6] [%]	killing kinetics (in words) (S. aureus ST1065 [4]; compared with PLS-S1 and -S2, MIC and two-fold above the MIC, in PBS)
FLSLIPHIVSGVASIAKHF-NH2 [PLS-S1]	6.25	12.5	70	>100	25	>100	>100	6.25	6.25	6.25	6.25	3.12	16.5	39	23	23	≤ 5	96	70	
FLSLIPHIVSGVASLAKHF-NH2 [PLS-S2]	6.25		25	30	25	25	200	6.25	6.25	6.25	6.25	1.56	18.5	25	22.5	23	≤ 5	65	80	
FLSMIPHIVSGVAALAKHL-NH2 [PLS-S4]	6.25		25	25	50	25	100	6.25	6.25	6.25	6.25	3.12	22	33	23	23		59	68	slower
